According to patent US20140005054A1, “COMPLEX RNA COMPOSITION OF BODILY FLUIDS” (INSTITUTE FOR SYSTEMS BIOLOGY, priority 2012, published 2014):

Tests used:
[1] = test system: mouse dicer deficient (DCR −/−) fibroblast cell line; assay: Transfection of synthetic exogenous RNA into fibroblasts, effect on transcriptome (microarray, pathway enrichment of down-regulated genes); assay type: cell-based; details: 10 nM synthetic RNA, 24 hours; for effects on the cellular transcriptome (gene expression profiles): microarray; for Affected pathways: pathways enriched among down-regulated genes
Description: We transfected several synthetic, double-stranded RNA molecules selected from observed exogenous miRNA sequences and some highly abundant exogenous sequences (bacterial rRNAs) that have potential to form pre-miRNA-like secondary structures (FIG. 7) into a mouse fibroblast cell line.
The mouse dicer deficient (DCR −/−) fibroblast cell line was generated from a conditional cre and floxed Dicer allele transgenic mouse available from Jax (located on the web at jaxmice.jax.org/strain/006001.html) kindly provided by Dr. Jacques Peschon. Part of the RNase III domain encoded in the exon 23 of dicer gene was deleted following cre excision. DCR −/− cells were maintained in Dulbecco's modified Eagle's medium with high glucose. The media was supplemented with 10% FBS, 1% non-essential amino acid, 1% GlutaMAX™. The cells were routinely incubated at 37° C. in a humidified atmosphere with 5% CO2.
Lipofectamine™ RNAiMAX was purchased from Invitrogen (Life Technologies, Carlsbad, Calif.). Custom designed exogenous RNA used in transfection was obtained from Ambion (Life Technologies, Carlsbad, Calif.). DCR −/− cells were seeded at a density of 1×10^5 cells in 6-well tissue culture plates 24 h prior to transfect with 10 nM of synthetic RNAs. Cells exposed to transfection reagents only were used as control. After 24 hours in the transfection media, the cells were harvested for RNA isolation and the transfection efficiency was validated with qPCR.
Effects of exogenous RNAs on transcriptome were assessed by using the Agilent mouse 4×44K microarray (Agilent, Santa Clara, Calif.). Total RNAs were isolated with an miRNeasy® column (Qiagen, Valencia, Calif.), and both Cy3 and Cy5-labeled cRNA samples were prepared with two color labeling kit (Agilent Technologies, Santa Clara, Calif.) and then hybridized at 65° C. for 17 h. Signal intensity was calculated from digitized images captured by a scanner from Agilent (Santa Clara, Calif.), and data analysis was performed by using GeneSpring GX software (Agilent Technologies, Santa Clara, Calif.).
The expression profiles of a number of genes in the cells were affected by some of the exogenous RNA sequences. We verified the changes in levels of some of these affected genes' mRNA by QPCR (FIG. 8).

mouse [2] = details: in vivo
Description: An acetaminophen overdose mouse model for drug-induced liver injury was employed to determine the effect of liver injury on the RNA spectrum.

mouse [3] = test system: mouse
[4] = Stability of RNA in plasma after enzyme or detergent treatment, qPCR; assay type: in vitro ADME, human
Procedure: The plasma samples were treated with various conditions (indicated on the top of the figure) prior to RNA isolation. The Y-axis represents the relative concentration change compared to no treatment determined by qPCR. The data represents the average changes from 9 plasma samples. The black bars represent the changes of an endogenous miRNA, miR-16, the open bars are exogenous miRNA, miR-263 from mosquitos and the gray bars are the 16S rRNA from Pseudomonas putida.
To explore the stability of exogenous RNA in plasma, we treated the plasma with RNase A from Fermentas™ (Thermo Scientific™, Wilmington, Del.) at a concentration at 1 μg/ml, DNase I (Fermentas™, Thermo Scientific™, Wilmington, Del.) at a concentration of 1 unit/ml, protease K (Fermentas™, Thermo Scientific™, Wilmington, Del.) at a concentration of 0.05 mg/ml, 0.1% Triton™ X 100, or protease K for 20 minutes followed by additional RNase A at 1 μg/ml after heat inactivation of protease K at 70° C. for 10 minutes prior for RNA isolation.
Adding additional RNase caused less reduction compared to protease followed by RNase treatments.

| Compound | effects on the cellular transcriptome (gene expression profiles) [1] | Affected pathways [1] | level of albumin transcript in plasma (mouse [2]) | level of apolipoprotein A2 (apoA2) transcript in plasma (mouse [2]) | level of transferrin transcript in plasma (mouse [2]) | number of transcripts in plasma affected (mouse [2]) | time course of albumin transcript level in plasma (mouse [2]) | time course of apoA2 transcript level in plasma (mouse [2]) | time course of transferrin transcript level in plasma (mouse [2]) | histopathology of liver tissues (mouse [3]; acetaminophen overdose) | histopathology of kidney tissues (mouse [3]; mouse, in vivo) | level of RNA in plasma after treatment ([4]; 0.1% Triton X-100 prior to RNA isolation) | level of RNA in plasma after treatment ([4]; RNase A 1 μg/ml prior to RNA isolation) | level of RNA in plasma after treatment ([4]; protease K 0.05 mg/ml prior to RNA isolation) | level of RNA in plasma after treatment ([4]; protease K for 20 minutes followed by RNase A 1 μg/ml) |
| --- | --- | --- | --- | --- | --- | --- | --- | --- | --- | --- | --- | --- | --- | --- | --- |
| Bantam: synthetic RNA UGAGAUCAUUGUGAAAGCUGAUU, Bantam miRNA from house fly (synthetic double-stranded RNA, chemistry not given here; listed as Musca domestica) | did not produce any significant effects | No enriched pathway | – | – | – | – | – | – | – | – | – | – | – | – | – |
| CC(=O)Nc1ccc(O)cc1 [acetaminophen] | – | – | significantly increased | significantly increased | significantly increased | Several hundred | spiked after 3 hours and decreased over a 24 hour period | spiked after 3 hours and decreased over a 24 hour period | increased to a lesser extent but held reasonably steady over a 24-hour period | typical zoon 3 hepatocyte death | renal tubular injury | – | – | – | – |
| miR-263: exogenous miRNA AAUGGCACUGGAAGAAUUCACGG, miR-263a from mosquito; synthetic form transfected, native form measured in plasma (synthetic double-stranded RNA, chemistry not given here; listed as Culex pipiens) | did not produce any significant effects | No enriched pathway | – | – | – | – | – | – | – | – | – | reduced significantly | reduced significantly | reduced significantly | reduced significantly |
